The nature of the first data set: method code SF-HPLC, from DOI: 10.1016/0378-5173(94)00315-v. As to conditions: pH 1.0.
Broadly, the logD is lipophilicity at a set pH, counting ionised and neutral species. Low readings indicate lower lipophilicity, high ones higher lipophilicity. Take `COc1ccc2cc(CC(=O)O)ccc2c1`: the logD is 2.82.

The same data set, now with this note: pH 7.4.
`COc1ccc2cc(CC(=O)OCC(=O)NC(C)C)ccc2c1` had a logD of 2.89. With `CCCN(CCC)C(=O)COC(=O)Cc1ccc2cc(OC)ccc2c1`, the logD stood at 4.04. On the same count and under the same terms, the value for `COc1ccc2cc(CC(=O)OCC(=O)N(CCO)CCO)ccc2c1` was 1.41; that for `C=CCN(CC=C)C(=O)COC(=O)Cc1ccc2cc(OC)ccc2c1` was 3.67; that for `COc1ccc2cc(CC(=O)OCC(=O)N3CCCC3)ccc2c1` was 2.71. Turning to `COc1ccc2cc(CC(=O)OCC(=O)NC3CCCCC3)ccc2c1`, the logD turned out to be 3.99.

Regarding `CCCCNC(=O)COC(=O)Cc1ccc2cc(OC)ccc2c1`, the pH-dependent lipophilicity (logD) worked out at 3.57.

For the compound `CCCNC(=O)COC(=O)Cc1ccc2cc(OC)ccc2c1`, the logD was found to be 3.1.

With `COc1ccc2cc(CC(=O)OCC(=O)NC(C)(C)C)ccc2c1`, the logD came out at 3.6. In turn, `CCN(CC)C(=O)COC(=O)Cc1ccc2cc(OC)ccc2c1` returned a logD of 3.05. The same measure, in the same setting: then `COc1ccc2cc(CC(=O)OCC(N)=O)ccc2c1`, with 1.88; and `CNC(=O)COC(=O)Cc1ccc2cc(OC)ccc2c1`, with 2.19; and `CCC(C)NC(=O)COC(=O)Cc1ccc2cc(OC)ccc2c1` (centres undefined), with 3.31. As for `COc1ccc2cc(CC(=O)OCC(=O)N(C)C)ccc2c1`, the logD is 2.23. The compound `COc1ccc2cc(CC(=O)OCC(=O)N3CCOCC3)ccc2c1` returned a logD of 2.13. As for `CCNC(=O)COC(=O)Cc1ccc2cc(OC)ccc2c1`, the logD is 2.65.

`COc1ccc2cc(CC(=O)OCC(=O)N(C)CCO)ccc2c1`: the logD was 1.58. The compound `CCN(CCO)C(=O)COC(=O)Cc1ccc2cc(OC)ccc2c1` came in with a logD of 1.98.

The record behind these values is the SangsterLogP compilation.
